Test results taken from PMC4287394 (Clinical cancer research : an official journal of the …, 2014).

Assay: Phase I safety: adverse events, DLT, MTD, RP2D
Assay type: in vivo, human
[1] = 15mg 21/28, 4 patients, all grades
[2] = 30mg 21/28, 3 patients, all grades
[3] = 45mg 21/28, 4 patients, all grades
[4] = 60mg 21/28, 4 patients, all grades
[5] = 80mg 21/28, 3 patients, all grades
[6] = 100mg 21/28, 5 patients, all grades
[7] = 130mg 21/28, 3 patients, all grades
[8] = 130mg 21/28, 3 patients, grade ≥3
[9] = 180mg 21/28, 3 patients, all grades
[10] = 245mg 21/28, 3 patients, all grades
[11] = 330mg 21/28, 7 patients, all grades

For CS(=O)(=O)N1CCN(Cc2cc3nc(-c4cccc5[nH]ncc45)nc(N4CCOCC4)c3s2)CC1 [pictilisib, 2-(1H-indazol-4-yl)-6-(4-methanesulfonyl-piperazin-1-ylmethyl)-4-morpholin-4-yl-t hieno[3,2-d]pyrimidine], the “Any treatment-related adverse event, no. of patients” value [1] was 2, the “Decreased appetite, no. of patients with treatment-related AE” value (“Decreased appetite, no. of patients” below) [1] was 0 and the “Diarrhea, no. of patients with treatment-related AE” value (shortened to “Diarrhea, no. of patients”) [1] was 0. The “Dysgeusia, no. of patients with treatment-related AE” value (shortened to “Dysgeusia, no. of patients”) [1] was 1, the “Fatigue, no. of patients with treatment-related AE” value (“Fatigue, no. of patients” below) [1] was 0 and the “Nausea, no. of patients with treatment-related AE” value (“Nausea, no. of patients” below) [1] was 1. For the same molecule, the “Rash (all rash preferred terms), no. of patients with treatment-related AE” value (shortened to “Rash … no. of patients with treatment-related AE”) [1] was 0, the “Vomiting, no. of patients with treatment-related AE” value (from here on “Vomiting, no. of patients”) [1] was 0 and the “Xeroderma, no. of patients with treatment-related AE” value (from here on “Xeroderma, no. of patients”) [1] was 0. The “Any treatment-related adverse event, no. of patients” value [2] was 1, the “Decreased appetite, no. of patients” value [2] was 0 and the “Diarrhea, no. of patients” value [2] was 0. For the same molecule, the “Dysgeusia, no. of patients” value [2] was 0, the “Fatigue, no. of patients” value [2] was 0 and the “Nausea, no. of patients” value [2] was 0. For the same molecule, the “Rash … no. of patients with treatment-related AE” value [2] was 0, the “Vomiting, no. of patients” value [2] was 0 and the “Xeroderma, no. of patients” value [2] was 0. For the same molecule, the “Any treatment-related adverse event, no. of patients” value [3] was 2, the “Decreased appetite, no. of patients” value [3] was 0 and the “Diarrhea, no. of patients” value [3] was 2. The “Dysgeusia, no. of patients” value [3] was 1, the “Fatigue, no. of patients” value [3] was 0 and the “Nausea, no. of patients” value [3] was 0. For the same molecule, the “Rash … no. of patients with treatment-related AE” value [3] was 0, the “Vomiting, no. of patients” value [3] was 0 and the “Xeroderma, no. of patients” value [3] was 0. The “Any treatment-related adverse event, no. of patients” value [4] was 2, the “Decreased appetite, no. of patients” value [4] was 0 and the “Diarrhea, no. of patients” value [4] was 1. For the same molecule, the “Dysgeusia, no. of patients” value [4] was 0, the “Fatigue, no. of patients” value [4] was 0 and the “Nausea, no. of patients” value [4] was 2. The “Rash … no. of patients with treatment-related AE” value [4] was 0, the “Vomiting, no. of patients” value [4] was 2 and the “Xeroderma, no. of patients” value [4] was 0. For the same molecule, the “Any treatment-related adverse event, no. of patients” value [5] was 3, the “Decreased appetite, no. of patients” value [5] was 0 and the “Diarrhea, no. of patients” value [5] was 1. The “Dysgeusia, no. of patients” value [5] was 1, the “Fatigue, no. of patients” value [5] was 2 and the “Nausea, no. of patients” value [5] was 1. The “Rash … no. of patients with treatment-related AE” value [5] was 0, the “Vomiting, no. of patients” value [5] was 1 and the “Xeroderma, no. of patients” value [5] was 0. The “Any treatment-related adverse event, no. of patients” value [6] was 3, the “Decreased appetite, no. of patients” value [6] was 0 and the “Diarrhea, no. of patients” value [6] was 1. The “Dysgeusia, no. of patients” value [6] was 0, the “Fatigue, no. of patients” value [6] was 1 and the “Nausea, no. of patients” value [6] was 3. The “Rash … no. of patients with treatment-related AE” value [6] was 0, the “Vomiting, no. of patients” value [6] was 0 and the “Xeroderma, no. of patients” value [6] was 0. For the same molecule, the “Patients with grade 4 hyperglycemia” value (130mg) was 1, the “Any treatment-related adverse event, no. of patients” value [7] was 1 and the “Decreased appetite, no. of patients” value [7] was 0. The “Diarrhea, no. of patients” value [7] was 0, the “Dysgeusia, no. of patients” value [7] was 0 and the “Fatigue, no. of patients” value [7] was 0. The “Nausea, no. of patients” value [7] was 0, the “Rash … no. of patients with treatment-related AE” value [7] was 0 and the “Vomiting, no. of patients” value [7] was 0. The “Xeroderma, no. of patients” value [7] was 0, the “Any treatment-related adverse event, no. of patients” value [8] was 1 and the “Decreased appetite, no. of patients” value [8] was 0. For the same molecule, the “Diarrhea, no. of patients” value [8] was 0, the “Dysgeusia, no. of patients” value [8] was 0 and the “Fatigue, no. of patients” value [8] was 0. The “Nausea, no. of patients” value [8] was 0, the “Rash … no. of patients with treatment-related AE” value [8] was 0 and the “Vomiting, no. of patients” value [8] was 0. For the same molecule, the “Xeroderma, no. of patients” value [8] was 0, the “Any treatment-related adverse event, no. of patients” value [9] was 2 and the “Decreased appetite, no. of patients” value [9] was 1. For the same molecule, the “Diarrhea, no. of patients” value [9] was 1, the “Dysgeusia, no. of patients” value [9] was 1 and the “Fatigue, no. of patients” value [9] was 1. The “Nausea, no. of patients” value [9] was 0, the “Rash … no. of patients with treatment-related AE” value [9] was 1 and the “Vomiting, no. of patients” value [9] was 0. For the same molecule, the “Xeroderma, no. of patients” value [9] was 0, the “Any treatment-related adverse event, no. of patients” value [10] was 3 and the “Decreased appetite, no. of patients” value [10] was 1. For the same molecule, the “Diarrhea, no. of patients” value [10] was 2, the “Dysgeusia, no. of patients” value [10] was 0 and the “Fatigue, no. of patients” value [10] was 1. The “Nausea, no. of patients” value [10] was 1, the “Rash … no. of patients with treatment-related AE” value [10] was 0 and the “Vomiting, no. of patients” value [10] was 0. The “Xeroderma, no. of patients” value [10] was 1, the “Any treatment-related adverse event, no. of patients” value [11] was 7 and the “Decreased appetite, no. of patients” value [11] was 2. The “Diarrhea, no. of patients” value [11] was 3, the “Dysgeusia, no. of patients” value [11] was 1 and the “Fatigue, no. of patients” value [11] was 4. For the same molecule, the “Nausea, no. of patients” value [11] was 4, the “Rash … no. of patients with treatment-related AE” value [11] was 4 and the “Vomiting, no. of patients” value [11] was 3. For the same molecule, the “Xeroderma, no. of patients” value [11] was 2.
